{"source": "patent US8216644B2", "about": "“Controlling wood staining and color during post-harvest processing” (Purdue Research Foundation, priority 2006, dated 2012)", "key": {"[1]": {"tested_on": "freshly cut black walnut wood"}, "[2]": {"tested_on": "freshly cut sugar maple wood", "assay": "test strip assay on freshly cut wood, sugar maple"}}, "data": [{"smiles": "NC(N)=O.OO", "note": "[hydrogen peroxide urea adduct]", "values": [{"measurement": "staining of wood", "setting": "[1]; 0.5 and 1.0% (w:w) concentration range, FIG. 4", "value": "visible staining"}, {"measurement": "staining of wood (experimental spots)", "setting": "[1]; test strips 0.5, 1.0, 5.0 and 10% (w:w), FIG. 2", "value": "visible on top of the background staining"}, {"measurement": "staining of wood at 10%", "setting": "[2]; 10% (w:w), FIG. 1", "value": "chemical breakdown of the staining due to bulk oxidation"}, {"measurement": "background gray scale values (bg), relative darkness", "setting": "[2]; image analysis of FIG. 3, plot profile, FIG. 5", "value": "increase in wood darkening with increasing hydrogen peroxide urea adduct concentrations"}, {"measurement": "concentration range in which the staining reaction appears saturated", "setting": "[2]; test strips 0, 0.5, 1.0, 5.0 and 10% (w:w), FIG. 1", "value": "0.5-1.0%"}, {"measurement": "staining reaction over concentration range", "setting": "[2]; test strips 0.05, 0.1, 0.5 and 1.0% (w:w), FIG. 3", "value": "shows a dose response curve"}]}]}
